Series [1] has as its target T1, GST M1-1 (Homo sapiens, UniProt P09488).
T1 sequence (P09488 1-218): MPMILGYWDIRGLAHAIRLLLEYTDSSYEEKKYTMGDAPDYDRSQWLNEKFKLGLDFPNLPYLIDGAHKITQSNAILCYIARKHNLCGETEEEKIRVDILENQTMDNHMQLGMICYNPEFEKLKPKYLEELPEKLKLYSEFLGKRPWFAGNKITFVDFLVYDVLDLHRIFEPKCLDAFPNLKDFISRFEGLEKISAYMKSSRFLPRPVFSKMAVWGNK
Briefly: Utilization of benzothiazole by GST M1-1. It is filed as biochemical. The conditions noted are these: 55 minutes at room temperature; for light produced with GST M1-1 minus no enzyme, concentrated substrate: concentrated substrate solution (approximately 1 mg/mL diluted 1:100), glutathione; for light produced with GST M1-1 minus no enzyme, diluted substrate: substrate solution diluted 1:3.1, glutathione. The method, then:
(§1) A small amount of compound 934-37 was dissolved in DMSO to produce a solution approximately 1 mg/mL. This solution was diluted 1:100 (v/v) into 50 mM HEPES buffer pH 7.5 to produce a substrate solution. Twenty μL of this solution was placed in 10 wells of a 96 well white luminometer plate (Promega part Z3291), then the solution was diluted 1:3.1 and 20 μL of the dilution was placed into another 10 wells in the luminometer plate.
(§2) D-Cysteine, 4 mg (Sigma Chemical Corp.; C8005-1 g, 017K1034) was dissolved into 1 mL of 50 mM HEPES buffer pH 7.5, then 4 μL added to 4 of the wells containing the substrate solution and 4 of the wells with diluted substrate solution to convert compound 934-37 to the corresponding luciferin derivative. The structures of these compounds are shown below.
A sample of GST M1-1 (1.2 mg/mL) and 100 μL of 100 mM glutathione was diluted into 5 mL of 50 mM HEPES pH 7.5, then 25 μL added to: two of the wells with unconverted, concentrated compound 934-37; 2 wells with concentrated and converted compound 934-37; and two of the wells with unconverted, diluted compound 934-37 and 2 of the wells with converted, diluted compound 934-37.
(§3) Glutathione (100 μL of 100 mM glutathione) had been diluted to 5 mL with 50 mM HEPES buffer pH 7.5, then 25 μL added to the remaining wells of converted and unconverted compound 934-37 in concentrated and diluted solution.
(§4) After 55 minutes at room temperature, 4 μL of the D-cysteine solution above was added to all wells that had not received cysteine before, then 50 μL of P450 Glo Luciferin Detection Reagent (made by dissolving a vial of Promega Luciferin Detection Reagent (Promega Part #V859B) with a vial of Promega P450-Glo Buffer (Promega Part #V865B). The plate was then placed into a Glo Max luminometer (Promega Corp.) and the light read after 15 minutes of incubation. The values obtained were averaged and the average value of the light produced from the wells given no enzyme were then subtracted from the average of the light produced with enzyme.

Series [2] deals with T2, GST A1-1 (Homo sapiens, UniProt P08263).
T2 sequence (P08263 1-222): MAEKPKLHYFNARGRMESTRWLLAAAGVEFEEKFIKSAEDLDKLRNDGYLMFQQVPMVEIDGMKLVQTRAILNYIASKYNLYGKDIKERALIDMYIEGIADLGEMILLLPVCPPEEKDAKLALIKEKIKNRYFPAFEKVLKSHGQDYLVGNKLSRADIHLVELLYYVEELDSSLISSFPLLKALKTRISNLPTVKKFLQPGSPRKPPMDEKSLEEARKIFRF
Briefly: Utilization of benzothiazole by GST A1-1. It is filed as biochemical. The conditions noted are these: 55 minutes at room temperature; for light produced with GST A1-1 minus no enzyme, concentrated substrate: concentrated substrate solution (approximately 1 mg/mL diluted 1:100), glutathione; for light produced with GST A1-1 minus no enzyme, diluted substrate: substrate solution diluted 1:3.1, glutathione. Here is the method: as §1, §2
A sample of GST A1-1 (1.2 mg/mL) and 100 μL of 100 mM glutathione in water was diluted into 5 mL of 50 mM HEPES pH 7.5, then 25 μL added to: two of the wells with unconverted, concentrated compound 934-37; 2 wells with concentrated and converted compound 934-37; and two of the wells with unconverted, diluted compound 934-37 and 2 of the wells with converted, diluted compound 934-37.
as §3, §4

The subject of series [3] is UGT isozymes. Particulars: cited from earlier work; for Isozymes Modulated: isozymes currently reported in the literature to be modulated by the compound.
Series [4] has as its system mouse liver microsomes. Briefly: Utilization of compound 3165 by mouse liver microsomes. Type of series: biochemical. The conditions noted are these: 2 hours at 37° C., 0.2 mg/mL microsomes, 50 μM compound. Here is the method:
(§5) The invention includes a method of determining activity of the uridine 5′-diphospho-glucuronosyltransferase (UDP-glucuronosyltransferase, or UGT) family enzymes in vitro. Briefly, UGT enzymes from overexpressed insect microsomes (Supersomes™, BD Gentest™) or animal tissue microsomes (Xenotech, BD Gentest™) were incubated with a cyanobenzothiazole substrate of the invention and the cofactor UDP-glucuronic acid (UDPGA) at 37° C. in buffer at physiological pH containing MgCl2 and alamethicin (typically, 50 mM TES, pH 7.5, 8 mM MgCl2, 4 mM UDPGA (Sigma) and 25 μg/mL alamethicin (Sigma)). […]
(§6) During this incubation, the cysteine reacts with the cyanobenzathiozole substrate to yield a D-luciferin derivative. […] Therefore, activity of the UGT enzyme can be measured by analyzing the difference (lower or no output) in relative light units (RLU) of a sample in which glucuronidation occurs compared to a sample that was run under the same conditions with no added UDPGA cofactor.
(§7) The ability of endogenously expressed UGT isozymes to utilize compounds 3138 and 3165 as substrates was determined in a similar manner to the assays with recombinant microsomes (Example 1). […]

For series [5], the system named is human liver microsomes. As to the kind of experiment: Utilization of compound 3165 by human liver, renal and intestinal microsomes. Type of series: biochemical. The conditions noted are these: 2 hours at 37° C., 0.2 mg/mL microsomes, 50 μM compound. The method, then:
as §5, §6, §7

For series [6], the system named is rat liver microsomes. Briefly: Utilization of compound 3165 by rat liver microsomes. It is filed as biochemical. Particulars: 2 hours at 37° C., 0.2 mg/mL microsomes, 50 μM compound. The method, then: as §5, §6, §7
For orientation: Liver microsomes are a subcellular fraction often used to study metabolism.

The subject of series [7] is endogenously expressed UGT isozymes in mammalian microsomes. As to the kind of experiment: Utilization of compounds by mammalian microsomes. It is filed as biochemical. Particulars: 0.2 mg/mL microsomes, 50 μM compound, reactions run for 2 hours. Here is the method: The invention includes a method of determining activity of the uridine 5′-diphospho-glucuronosyltransferase (UDP-glucuronosyltransferase, or UGT) family enzymes in vitro. […] Following the UGT enzyme reaction, an equal volume of P450-Glo Luciferin Detection Reagent (Promega) containing 15-30 mM D-cysteine-HCl.H2O (Sigma) was added and the plate was mixed and incubated at room temperature, typically for 20-30 minutes. P450-Glo Luciferin Detection Reagent can be prepared by dissolving a vial of Promega Luciferin Detection Reagent (Promega Part #V859B) with a vial of Promega P450-Glo Buffer (Promega Part #V865B).
as §6
Tissue microsomes were obtained from Xenotech LLC or BD Gentest.

Series [8] addresses T3, UGT 1A4 (Homo sapiens, UniProt P22310).
T3 construct: purchased BD Gentest; host or cells: insect cells (microsomes)
T3 sequence (P22310 29-534): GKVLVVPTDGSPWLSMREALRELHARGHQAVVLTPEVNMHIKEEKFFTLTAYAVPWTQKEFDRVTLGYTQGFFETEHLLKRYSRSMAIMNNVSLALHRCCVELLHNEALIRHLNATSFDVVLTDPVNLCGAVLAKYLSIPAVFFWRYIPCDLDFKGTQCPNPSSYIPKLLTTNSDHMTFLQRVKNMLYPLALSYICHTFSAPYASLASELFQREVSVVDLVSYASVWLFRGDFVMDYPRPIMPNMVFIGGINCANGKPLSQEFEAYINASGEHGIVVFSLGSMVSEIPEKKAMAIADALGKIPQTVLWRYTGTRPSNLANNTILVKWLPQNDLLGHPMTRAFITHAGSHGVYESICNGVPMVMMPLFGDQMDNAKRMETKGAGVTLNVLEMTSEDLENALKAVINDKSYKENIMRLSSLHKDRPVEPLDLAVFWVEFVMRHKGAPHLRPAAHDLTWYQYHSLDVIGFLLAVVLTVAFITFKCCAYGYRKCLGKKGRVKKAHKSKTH
Briefly: UGT activity: utilization of substrate by recombinant UGT 1A4 Supersomes. Type of series: biochemical. The conditions noted are these: 2 hour incubation at 37° C., plus vs minus UDPGA. The method, then:
The invention includes a method of determining activity of the uridine 5′-diphospho-glucuronosyltransferase (UDP-glucuronosyltransferase, or UGT) family enzymes in vitro. Briefly, UGT enzymes from overexpressed insect microsomes (Supersomes™, BD Gentest™) or animal tissue microsomes (Xenotech, BD Gentest™) were incubated with a cyanobenzothiazole substrate of the invention and the cofactor UDP-glucuronic acid (UDPGA) at 37° C. in buffer at physiological pH containing MgCl2 and alamethicin (typically, 50 mM TES, pH 7.5, 8 mM MgCl2, 4 mM UDPGA (Sigma) and 25 μg/mL alamethicin (Sigma)). Following the UGT enzyme reaction, an equal volume of P450-Glo Luciferin Detection Reagent (Promega) containing 15-30 mM D-cysteine-HCl.H2O (Sigma) was added and the plate was mixed and incubated at room temperature, typically for 20-30 minutes. P450-Glo Luciferin Detection Reagent can be prepared by dissolving a vial of Promega Luciferin Detection Reagent (Promega Part #V859B) with a vial of Promega P450-Glo Buffer (Promega Part #V865B).
as §6
In this example, a series of 12 recombinant UGTs expressed in insect microsomes (Supersomes™, BD Gentest™), as well as the control microsomes not expressing the UGT enzyme, were incubated with compound 3138, compound 3478, or compound 3165 as substrates, with or without the UDPGA co-factor. […]
Reactions were assembled in a white 96-well plate. […] After the incubation was completed, the plate was read on a Veritas™ luminometer (Turner BioSystems, Inc.; Sunnyvale, Calif.). […]

As to `Cc1cc(S(=O)(=O)Oc2ccc3nc(C4=N[C@@H](C(=O)O)CS4)sc3c2)ccc1[N+](=O)[O-]` [converted compound 934-37], in series [1], the “light produced with GST M1-1 minus no enzyme, concentrated substrate” value is on record as 315,759 RLU and the “light produced with GST M1-1 minus no enzyme, diluted substrate” value is 213,920 RLU. Besides, in series [2], the “light produced with GST A1-1 minus no enzyme, concentrated substrate” value was 6,410 RLU and the “light produced with GST A1-1 minus no enzyme, diluted substrate” value is 6,462 RLU.

In the case of `C=C[C@H]1C[N@@]2CC[C@H]1C[C@@H]2[C@@H](O)c1ccnc2ccc(OC)cc12` [Quinidine], the “Isozymes Modulated” value in series [3] was 2B7 and 2B15, others to a lesser extent.

`Cc1cc(NCc2cccc(N)c2)cc2sc(C#N)nc12` [compound 3165]: the “utilization of compound 3165 by mouse liver microsomes” value in series [4] was “Activity was also seen for both rat and mouse liver microsomes”. Also, the “utilization of compound 3165: human liver vs human renal and intestinal microsomes” value in series [5] was “much higher for human liver microsomes than either human renal or human intestinal microsomes”. For the same compound, in series [6], the “utilization of compound 3165 by rat liver microsomes” value was “Activity was also seen for both rat and mouse liver microsomes”. The “rate of utilization of compound 3165 by mammalian microsomes (compared with compound 3138)” value in series [7] was “much slower”. Further, in series [8], the “utilization by UGT 1A4 (in words)” value is on record as “only utilized by UGT 1A4”.

As for `CC(C)c1nc(CN(C)C(=O)N[C@H](C(=O)N[C@@H](Cc2ccccc2)C[C@H](O)[C@H](Cc2ccccc2)NC(=O)OCc2cncs2)C(C)C)cs1` [Ritonavir], in series [3] (literature report), the “inhibition of UGT isozymes as reported in the literature” value was “inhibits UGT 1A 1 and 1A4, but has little effect on UGT 2B7”.

Turning to `Cc1cc(S(=O)(=O)Oc2ccc3nc(C#N)sc3c2)ccc1[N+](=O)[O-]` [compound 934-37], in series [1], the “light produced with GST M1-1 minus no enzyme, concentrated substrate” value was 41,212 RLU and the “light produced with GST M1-1 minus no enzyme, diluted substrate” value was 30,428 RLU. In addition, in series [2], the “light produced with GST A1-1 minus no enzyme, concentrated substrate” value was 164,400 RLU and the “light produced with GST A1-1 minus no enzyme, diluted substrate” value is recorded as 195,021 RLU.

Consider `O=c1ccc2ccc(O)cc2o1` [Umbelliferne], for which, in series [3], the “Isozymes Modulated” value is recorded as “Substrate of most isozymes”.

For the compound `O=c1cc(C(F)(F)F)c2ccc(O)cc2o1` [7-hydroxy-4-trifluoromethyl coumarin], the “Isozymes Modulated” value in series [3] is “Substrate for 1A1, 1A3, 1A6, 1A9, 2B7”.

The record behind these values is US8551721B2, “Bioluminescent detection of cyanohydroxy benzothiazole compounds” (Promega Corporation, priority 2008, dated 2013).
